Source: patent US20250275959A1, “COMPOUNDS AND METHODS OF THEIR USE” (LEXICON PHARMACEUTICALS, INC., priority 2024, published 2025)

Molecular target: hACSL5 (Homo sapiens (Human), UniProt Q9ULC5)
Assay: Human ACSL5 coupled enzyme Amplex Red assay
Assay type: biochemical
Conditions: read-out: hACSL5 IC50
Experimental: Human ACSL5 (33-683) was cloned with a C-terminal 6 His tag and expressed in insect cells (sf9) as per standard insect cell expression protocols. Human ACSL5 was enriched by affinity nickel affinity chromatography followed by Superdex S200 gel filtration column equilibrated in 20 mM HEPES pH 7.8, 500 mM NaCl, 1 mM TCEP, 5% glycerol, 0.1% Triton X^100.
Inhibition of ACSL5 enzyme activity was monitored with a coupled enzyme Amplex Red assay.
The assay is carried out in 384-well microtiterplates. In a total volume of […], compounds are preincubated with 20 nM ACSL5, in a buffer containing 150 mM MOPS-NaOH, 12 mM MgCl2, 0.03% (v/v) Triton X-100, 2.79 U mL-1 Peroxidase and 24 U mL-1 Acyl-CoA Oxidase (pH 7.6). The reaction is started by the addition of substrate and co factors (25 μM oleate, 30 μM CoA, 1 mM ATP and 50 μM Amplex Red) and the fluorescence detected after 10 minutes at 25° C. with a fluorescence reader (BMG-Fluostar; BMG-Technologies) using an excitation wavelength of 535 nm and an emission wavelength of 590 nm.
Concentration-response titration points for each compound tested were filled to the Hill equation yielding concentrations of half maximal inhibition […] and maximal inhibition values.

hACSL5, sequence (Q9ULC5 33-683): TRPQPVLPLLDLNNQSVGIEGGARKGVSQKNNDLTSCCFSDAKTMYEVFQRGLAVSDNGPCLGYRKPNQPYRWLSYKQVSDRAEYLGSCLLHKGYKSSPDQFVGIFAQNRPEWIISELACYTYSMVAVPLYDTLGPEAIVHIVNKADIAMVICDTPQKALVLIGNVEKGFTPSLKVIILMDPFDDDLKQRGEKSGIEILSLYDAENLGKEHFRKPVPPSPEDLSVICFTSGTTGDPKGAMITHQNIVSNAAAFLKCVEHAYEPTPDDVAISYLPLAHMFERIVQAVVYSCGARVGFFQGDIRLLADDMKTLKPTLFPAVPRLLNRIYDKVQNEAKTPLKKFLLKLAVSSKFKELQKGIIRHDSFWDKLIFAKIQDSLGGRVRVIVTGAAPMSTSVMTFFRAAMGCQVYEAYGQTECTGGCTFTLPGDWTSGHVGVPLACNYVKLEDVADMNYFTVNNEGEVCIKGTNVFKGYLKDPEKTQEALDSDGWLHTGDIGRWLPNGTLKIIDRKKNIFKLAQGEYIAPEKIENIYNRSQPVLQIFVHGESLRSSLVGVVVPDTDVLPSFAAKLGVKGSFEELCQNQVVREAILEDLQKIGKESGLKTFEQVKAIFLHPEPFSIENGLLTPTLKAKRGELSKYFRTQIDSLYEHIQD

IC50 [nM]	SMILES
100 to 500	CC(COc1ccc(C(=O)NS(=O)(=O)c2ccc(CN)cc2)cc1C(F)(F)F)c1cccc(Oc2ccccc2)c1 (stereo not shown) [N-((4-(aminomethyl)phenyl)sulfonyl)-4-(2-(3-phenoxyphenyl)propoxy)-3-(trifluoromethyl)benzamide]
< 100	CC[C@@H](Oc1ccc(C(=O)NS(=O)(=O)c2ccc(O[C@H]3CCCN(C)C3)cc2)c(F)c1F)c1ccc(Oc2ccccn2)cn1 [2,3-difluoro-N-((4-(((S)-1-methylpiperidin-3-yl)oxy)phenyl)sulfonyl)-4-((R)-1-(5-(pyridin-2-yloxy)pyridin-2-yl)propoxy)benzamide]
< 100	CC(Oc1ccc(C(=O)NS(=O)(=O)c2ccc(CN)cc2)cc1C(F)(F)F)c1cccc(Oc2ccsc2)c1 (stereo not shown) [N-((4-(aminomethyl)phenyl)sulfonyl)-4-(1-(3-(thiophen-3-yloxy)phenyl)ethoxy)-3-(trifluoromethyl)benzamide]
< 100	CC[C@@H](Oc1ccc(C(=O)NS(=O)(=O)c2ccc(O[C@@H]3CCCN(C)C3)cc2)c(F)c1F)c1ccc(Oc2ccccn2)cn1 [2,3-difluoro-N-((4-(((R)-1-methylpiperidin-3-yl)oxy)phenyl)sulfonyl)-4-((R)-1-(5-(pyridin-2-yloxy)pyridin-2-yl)propoxy)benzamide]
100 to 500	CC[C@@H](Oc1ccc(C(=O)NS(=O)(=O)N2CC3(CN(C)C3)C2)c(F)c1F)c1ccc(Oc2ccccn2)cn1 [(R)-2,3-difluoro-N-((6-methyl-2,6-diazaspiro[3.3]heptan-2-yl)sulfonyl)-4-(1-(5-(pyridin-2-yloxy)pyridin-2-yl)propoxy)benzamide]
100 to 500	CC(COc1ccc(C(=O)NS(=O)(=O)c2ccc(CN)cc2)c(Cl)c1Cl)c1cccc(Oc2ccccc2)c1 (stereo not shown) [N-((4-(aminomethyl)phenyl)sulfonyl)-2,3-dichloro-4-(2-(3-phenoxyphenyl)propoxy)benzamide]
< 100	CC(Oc1ccc(C(=O)NS(=O)(=O)c2ccc(CN)cc2)cc1C(F)(F)F)c1cccc(Oc2cccnc2)c1 (stereo not shown) [N-((4-(aminomethyl)phenyl)sulfonyl)-4-(1-(3-(pyridin-3-yloxy)phenyl)ethoxy)-3-(trifluoromethyl)benzamide]
< 100	Cc1cc(C(=O)NS(=O)(=O)c2ccc(CN)cc2)ccc1OC(C)c1cccc(Oc2ccccc2)c1 (racemic) [rac-(R)-N-((4-(aminomethyl)phenyl)sulfonyl)-3-methyl-4-(1-(3-phenoxyphenyl)ethoxy)benzamide]
< 100	CNCc1ccc(S(=O)(=O)NC(=O)c2ccc(OCc3cccc(Oc4ccccc4)c3)c(F)c2F)cc1 [2,3-difluoro-N-((4-((methylamino)methyl)phenyl)sulfonyl)-4-((3-phenoxybenzyl)oxy)benzamide]
100 to 500	CN(C)Cc1ccc(S(=O)(=O)NC(=O)c2ccc(OCc3cccc(Oc4ccccc4)c3)c(F)c2F)cc1 [N-((4-((dimethylamino)methyl)phenyl)sulfonyl)-2,3-difluoro-4-((3-phenoxybenzyl)oxy)benzamide]
> 500	CC[C@@H](Oc1ccc(C(=O)NS(=O)(=O)c2ccc(OC3CCN(C)CC3)cc2)c(F)c1F)c1ccc(OCCOC)cn1 [(R)-2,3-difluoro-4-(1-(5-(2-methoxyethoxy)pyridin-2-yl)propoxy)-N-((4-((1-methylpiperidin-4-yl)oxy)phenyl)sulfonyl)benzamide]

SMILES	IC50 [nM]
CC[C@@H](Oc1ccc(C(=O)NS(=O)(=O)N2CCN(CC)CC2)c(F)c1F)c1ccc(OC2CC(OC)C2)cn1 (stereo partly drawn) [N-((4-ethylpiperazin-1-yl)sulfonyl)-2,3-difluoro-4-((R)-1-(5-((1R,3R)-3-methoxycyclobutoxy)pyridin-2-yl)propoxy)benzamide]	100 to 500
CC[C@@H](Oc1ccc(C(=O)NS(=O)(=O)N2CC3CC(C2)N3C)c(F)c1F)c1ccc(Oc2ccccn2)cn1 [2,3-difluoro-N-((6-methyl-3,6-diazabicyclo[3.1.1]heptan-3-yl)sulfonyl)-4-((R)-1-(5-(pyridin-2-yloxy)pyridin-2-yl)propoxy)benzamide]	< 100
